The values that follow come from patent US20260250250A1, “3-(SULPHONYL OR SULFONIMIDOYL)PROP-2-EN-1-YL]-2-OXO-1,2-DIHYDROPYRIDINE-3-CARBOXAMIDE DERIVATIVES” (Flinder Therapeutics B.V., priority 2022, published 2026).

Like-named read-outs stand apart in the source and are kept apart here.

In assay [1] the test system is bladder carcinoma RT4 cell line. The assay is described as follows: TNF-α-induced cytotoxicity assay (CellTiter-Glo viability). In kind it is cell-based. In a few lines: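 RT4 bladder carcinoma cells, 1000 per well, stimulated with 1.25 ng/mL TNFα together with compound for 72 h at 37° C., 5% CO2. Viability read by CellTiter-Glo luminescence, proportional to cellular ATP, as a measure of HOIP-dependent cytotoxicity.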
On the technique in general: Cellular ATP, detected with luciferase, serves as a proxy for viable cell number.

The test system of another assay is NF-κB signaling pathway. The assay is described as follows: Cell-based dual luciferase NF-κB reporter assay (HEK293 cells, TNF stimulated). The method in brief: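 HEK293 cells transfected with Firefly luciferase and NF-κB-response-element NanoLuc plasmids; compounds at 100–0.005 µM in 1% DMSO. Cells stimulated with 2.5 ng/mL TNF 30 min after compound addition. Firefly and NanoLuc activities read after 6 h by Nano-Glo dual-luciferase detection.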
In general terms: Reporter assays use an easily measured gene product as a stand-in for the process of interest.

Assay [2] has as its target T1, human E3 ubiquitin-protein ligase RNF31 (HOIP) (Homo sapiens, UniProt Q96EP0).
T1 sequence (Q96EP0 695-1072 limits assumed): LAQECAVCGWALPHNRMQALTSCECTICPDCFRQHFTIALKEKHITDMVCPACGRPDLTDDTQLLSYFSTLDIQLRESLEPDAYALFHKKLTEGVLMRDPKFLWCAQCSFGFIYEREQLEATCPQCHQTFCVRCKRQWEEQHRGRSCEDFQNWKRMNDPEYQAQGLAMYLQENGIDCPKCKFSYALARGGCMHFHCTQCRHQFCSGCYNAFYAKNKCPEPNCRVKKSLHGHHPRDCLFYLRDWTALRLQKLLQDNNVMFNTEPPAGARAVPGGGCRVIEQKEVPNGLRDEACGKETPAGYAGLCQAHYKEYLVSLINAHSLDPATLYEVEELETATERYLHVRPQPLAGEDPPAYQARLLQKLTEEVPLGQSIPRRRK
The assay can be described thus: Cell-free HTRF-based HOIP inhibition assay. In kind it is biochemical. In a few lines: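 HTRF read (ex 337 nm; em 665 and 620 nm) after a 2.5 h, 25° C. ubiquitination step started by adding E2 plus substrates. Before that, E. coli-expressed human HOIP fragment and E1 were incubated 1 h at 25° C. with compound at 100-0.005 μM, 1% DMSO final.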
(In general: TR-FRET usually uses a lanthanide donor and a delayed reading to cut background.)

Broadly, the IC50 is the concentration needed to halve the response being measured. A low value points to inhibition by little substance.

As to `Cc1nnc(COC(=O)N2CCc3[nH]c(=O)c(C(=O)NC/C=C/S(=O)(=O)c4ccccc4)cc3C2)o1` [Example 71, (5-methyl-1,3,4-oxadiazol-2-yl)methyl 3-{[(2E)-3-(benzenesulfonyl)prop-2-en-1-yl]carbamoyl}-2-oxo-1,2,5,6,7,8-hexahydro-1,6-naphthyridine-6-carboxylate], the IC50 in assay [1] (Homo sapiens, RT-4, 72 h) is at most 100000 nM; in the assay on NF-κB signaling pathway (Homo sapiens, HEK293), at most 100000 nM; in assay [2] it was at most 1000 nM.
On to `CC(OC(=O)N1CCc2[nH]c(=O)c(C(=O)NC/C=C/S(=O)(=O)c3ccccc3)cc2C1)C(F)(F)F` (stereo not drawn) [Example 72, 1,1,1-trifluoropropan-2-yl 3-{[(2E)-3-(benzenesulfonyl)prop-2-en-1-yl]carbamoyl}-2-oxo-1,2,5,6,7,8-hexahydro-1,6-naphthyridine-6-carboxylate], for which the IC50 was at most 1000 nM in assay [1] (Homo sapiens, RT-4, 72 h); at most 1000 nM in the assay on NF-κB signaling pathway (Homo sapiens, HEK293); at most 1000 nM in assay [2].
Turning to `CC1(C)CC1COC(=O)N1CCc2[nH]c(=O)c(C(=O)NC/C=C/S(=O)(=O)c3ccccc3)cc2C1` (stereo not drawn) [Example 73, (2,2-dimethylcyclopropyl)methyl 3-{[(2E)-3-(benzenesulfonyl)prop-2-en-1-yl]carbamoyl}-2-oxo-1,2,5,6,7,8-hexahydro-1,6-naphthyridine-6-carboxylate], the IC50 in assay [1] (Homo sapiens, RT-4, 72 h) is at most 1000 nM; with NF-κB signaling pathway (Homo sapiens, HEK293), at most 1000 nM; in assay [2], at most 100 nM.
For the compound `O=C(NC/C=C/S(=O)(=O)c1ccccc1)c1cc2c([nH]c1=O)CCN(C(=O)OCC1CC1(F)F)C2` (stereo not drawn) [Example 74, (2,2-difluorocyclopropyl)methyl 3-{[(2E)-3-(benzenesulfonyl)prop-2-en-1-yl]carbamoyl}-2-oxo-1,2,5,6,7,8-hexahydro-1,6-naphthyridine-6-carboxylate], the 50% inhibitory concentration (IC50) is at most 10000 nM in assay [1] (Homo sapiens, RT-4, 72 h); at most 1000 nM with NF-κB signaling pathway (Homo sapiens, HEK293); at most 1000 nM in assay [2].
On to `COCC(C)OC(=O)N1CCc2[nH]c(=O)c(C(=O)NC/C=C/S(=O)(=O)c3ccccc3)cc2C1` (stereo not drawn) [Example 75, 1-methoxypropan-2-vi 3-{[(2E)-3-(benzenesulfonyl)prop-2-en-1-yl]carbamoyl}-2-oxo-1,2,5,6,7,8-hexahydro-1,6-naphthyridine-6-carboxylate], for which the IC50 in assay [1] (Homo sapiens, RT-4, 72 h) was at most 10000 nM; in the assay on NF-κB signaling pathway (Homo sapiens, HEK293) it was at most 10000 nM; in assay [2], at most 1000 nM.
Regarding `O=C(NC/C=C/S(=O)(=O)c1ccccc1)c1cc2c([nH]c1=O)CCN(C(=O)OCCF)C2` [Example 76, 2-fluoroethyl 3-{[(2E)-3-(benzenesulfonyl)prop-2-en-1-yl]carbamoyl}-2-oxo-1,2,5,6,7,8-hexahydro-1,6-naphthyridine-6-carboxylate], the IC50 in assay [1] (Homo sapiens, RT-4, 72 h) was at most 10000 nM; in the assay on NF-κB signaling pathway (Homo sapiens, HEK293), at most 10000 nM; in assay [2], at most 1000 nM.
As to `O=C(NC/C=C/S(=O)(=O)c1ccccc1)c1cc2c([nH]c1=O)CCN(C(=O)OCC(F)F)C2` [Example 77, 2,2-Difluoroethyl 3-{[(2E)-3-(benzenesulfonyl)prop-2-en-1-yl]carbamoyl}-2-oxo-1,2,5,6,7,8-hexahydro-1,6-naphthyridine-6-carboxylate], the IC50 is at most 10000 nM in assay [1] (Homo sapiens, RT-4, 72 h); at most 1000 nM with NF-κB signaling pathway (Homo sapiens, HEK293); at most 100 nM in assay [2].
With `O=C(NC/C=C/S(=O)(=O)c1ccccc1)c1cc2c([nH]c1=O)CCN(C(=O)OC1CC1)C2` [Example 78, cyclopropyl 3-{[(2E)-3-(benzenesulfonyl)prop-2-en-1-yl]carbamoyl}-2-oxo-1,2,5,6,7,8-hexahydro-1,6-naphthyridine-6-carboxylate], the IC50 in assay [1] (Homo sapiens, RT-4, 72 h) was at most 10000 nM; in the assay with NF-κB signaling pathway (Homo sapiens, HEK293) it was at most 1000 nM; in assay [2] it was at most 1000 nM.
With `O=C(NC/C=C/S(=O)(=O)c1ccccc1)c1cc2c([nH]c1=O)CCN(C(=O)OC1CCC3(CC1)COC3)C2` [Example 79, 2-Oxaspiro[3.5]nonan-7-vi 3-{[(2E)-3-(benzenesulfonyl)prop-2-en-1-yl]carbamoyl}-2-oxo-1,2,5,6,7,8-hexahydro-1,6-naphthyridine-6-carboxylate], the IC50 in assay [1] (Homo sapiens, RT-4, 72 h) is at most 10000 nM; with NF-κB signaling pathway (Homo sapiens, HEK293) it was at most 10000 nM; in assay [2], at most 100 nM.
As to `COCCOC(=O)N1CCc2[nH]c(=O)c(C(=O)NC/C=C/S(=O)(=O)c3ccccc3)cc2C1` [Example 80, 2-Methoxyethyl 3-{[(2E)-3-(benzenesulfonyl)prop-2-en-1-yl]carbamoyl}-2-oxo-1,2,5,6,7,8-hexahydro-1,6-naphthyridine-6-carboxylate], the IC50 in assay [1] (Homo sapiens, RT-4, 72 h) is at most 10000 nM; in the assay on NF-κB signaling pathway (Homo sapiens, HEK293), at most 100000 nM; in assay [2] it was at most 1000 nM.
For the compound `O=C(NCC=CS(=O)(=O)c1ccccc1)c1cc2c([nH]c1=O)CCN(C(=O)OC1CCOC1)C2` [Example 81, (3S)-Oxolan-3-vi 3-{[(2E)-3-(benzenesulfonyl)prop-2-en-1-yl]carbamoyl}-2-oxo-1,2,5,6,7,8-hexahydro-1,6-naphthyridine-6-carboxylate], the IC50 in assay [1] (Homo sapiens, RT-4, 72 h) is at most 10000 nM; with NF-κB signaling pathway (Homo sapiens, HEK293) it was at most 10000 nM; in assay [2], at most 1000 nM.
For `O=C(NCC=CS(=O)(=O)c1ccccc1)c1cc2c([nH]c1=O)CCN(C(=O)OC1CCOC1)C2` [Example 82, (3R)-oxolan-3-vi 3-{[(2E)-3-(benzenesulfonyl)prop-2-en-1-yl]carbamoyl}-2-oxo-1,2,5,6,7,8-hexahydro-1,6-naphthyridine-6-carboxylate], the IC50 is at most 10000 nM in assay [1] (RT4, 1.25 ng/mL TNFα, 72 h, bin printed as 1.0 μM < IC50 ≤ 10 μM (lower bound in the cell to the left)); at most 10000 nM in the assay with NF-κB signaling pathway (HEK293, 2.5 ng/mL TNF, bin printed as 1.0 μM < IC50 ≤ 10 μM (lower bound in the cell to the left)); at most 1000 nM in assay [2] (bin printed as 100 nM < IC50 ≤ 1.0 μM (lower bound in the cell to the left)).
Consider `O=C(NC/C=C/S(=O)(=O)c1ccccc1)c1cc2c([nH]c1=O)CCN(C(=O)OCCN1CCCCC1=O)C2` [Example 83, 2-(2-Oxopiperidin-1-yl)ethyl 3-{[(2E)-3-(benzenesulfonyl)prop-2-en-1-yl]carbamoyl}-2-oxo-1,2,5,6,7,8-hexahydro-1,6-naphthyridine-6-carboxylate], for which the IC50 in assay [1] (Homo sapiens, RT-4, 72 h) was at most 100000 nM; in the assay with NF-κB signaling pathway (Homo sapiens, HEK293) it was at most 100000 nM; in assay [2], at most 1000 nM.
As to `O=C(NC/C=C/S(=O)(=O)c1ccccc1)c1cc2c([nH]c1=O)CCN(C(=O)OC1CCCC1)C2` [Example 84, cyclopentyl 3-{[(2E)-3-(benzenesulfonyl)prop-2-en-1-yl]carbamoyl}-2-oxo-1,2,5,6,7,8-hexahydro-1,6-naphthyridine-6-carboxylate], the IC50 was at most 1000 nM in assay [1] (Homo sapiens, RT-4, 72 h); at most 1000 nM in the assay on NF-κB signaling pathway (Homo sapiens, HEK293); at most 100 nM in assay [2].
Consider `CC1(C)CC1COC(=O)N1CCc2[nH]c(=O)c(C(=O)NC/C=C/S(=O)(=O)c3ccc(Cl)cc3)cc2C1` (stereo not drawn) [Example 85, (2,2-dimethylcyclopropyl)methyl 3-{[(2E)-3-(4-chlorobenzenesulfonyl)prop-2-en-1-yl]carbamoyl}-2-oxo-1,2,5,6,7,8-hexahydro-1,6-naphthyridine-6-carboxylate], for which the IC50 was at most 1000 nM in assay [1] (Homo sapiens, RT-4, 72 h); at most 1000 nM with NF-κB signaling pathway (Homo sapiens, HEK293); at most 100 nM in assay [2].
`O=C(NC/C=C/S(=O)(=O)c1ccc(Cl)cc1)c1cc2c([nH]c1=O)CCN(C(=O)OCC1CC1(F)F)C2` (stereo not drawn) [Example 86, (2,2-difluorocyclopropyl)methyl 3-{[(2E)-3-(4-chlorobenzenesulfonyl)prop-2-en-1-yl]carbamoyl}-2-oxo-1,2,5,6,7,8-hexahydro-1,6-naphthyridine-6-carboxylate]: the IC50 in assay [1] (Homo sapiens, RT-4, 72 h) is at most 10000 nM; with NF-κB signaling pathway (Homo sapiens, HEK293) it was at most 1000 nM; in assay [2], at most 100 nM.
Consider `O=C(NC/C=C/S(=O)(=O)c1ccc(Cl)cc1)c1cc2c([nH]c1=O)CCN(C(=O)OC1COC1)C2` [Example 87, oxetan-3-vi 3-{[(2E)-3-(4-chlorobenzenesulfonyl)prop-2-en-1-yl]carbamoyl}-2-oxo-1,2,5,6,7,8-hexahydro-1,6-naphthyridine-6-carboxylate], for which the IC50 was at most 100000 nM in assay [1] (Homo sapiens, RT-4, 72 h); at most 10000 nM in the assay on NF-κB signaling pathway (Homo sapiens, HEK293); at most 100 nM in assay [2].
As to `O=C(NC/C=C/S(=O)(=O)c1ccc(Cl)cc1)c1cc2c([nH]c1=O)CCN(C(=O)OCC1CC1)C2` [Example 88, cyclopropylmethyl 3-{[(2E)-3-(4-chlorobenzenesulfonyl)prop-2-en-1-yl]carbamoyl}-2-oxo-1,2,5,6,7,8-hexahydro-1,6-naphthyridine-6-carboxylate], the IC50 in assay [1] (Homo sapiens, RT-4, 72 h) is at most 1000 nM; in the assay with NF-κB signaling pathway (Homo sapiens, HEK293), at most 1000 nM; in assay [2], at most 100 nM.
For the compound `O=C(NC/C=C/S(=O)(=O)c1ccccc1)c1cc2c([nH]c1=O)CCN(C(=O)OCCc1ccco1)C2` [Example 89, 2-(furan-2-yl)ethyl 3-{[(2E)-3-(benzenesulfonyl)prop-2-en-1-yl]carbamoyl}-2-oxo-1,2,5,6,7,8-hexahydro-1,6-naphthyridine-6-carboxylate], the IC50 in assay [1] (Homo sapiens, RT-4, 72 h) is at most 1000 nM; in the assay on NF-κB signaling pathway (Homo sapiens, HEK293) it was at most 10000 nM; in assay [2], at most 1000 nM.
